SMILES strings stand for the structures.

As usually defined, the inhibition is the share of the control response that was lost under treatment.

What all share (assay type): cell-based
For experiment [1], the system named is alpha-smooth muscle actin (α-SMA). In words: Inhibition of TGF-β induced expression of alpha-smooth muscle actin in CFSC cells (western blot). The conditions noted are these: compound at 10 μM, TGF-β (10 ng/mL), 24 hours. How it is done:
The ability of a compound to inhibit the TGF-β induced expression of alpha-smooth muscle actin (α-SMA) was evaluated in CCl4-treated fat storing (CFSC) cells. α-SMA is considered as a reliable marker of hepatic stellate cell activation and a key biomarker for liver fibrosis.
CFSC cells maintained in a DMEM medium supplemented with 10% fetal bovine serum were seeded to 12-well culture dishes and grown to a confluence of 60-70% the next day. Culture was changed to a serum-free DMEM medium and the cells were treated with the compound at 10 μM in the presence of TGF-β (10 ng/mL). The cells were incubated for another 24 hours. All culture was maintained at 37° C. in 5% carbon dioxide.
An NP-40 lysate solution (50 mM Tris, pH 7.4, 150 mM NaCl, 1% NP-40) with EDTA free cocktail added was used to lyse the cells on ice for 30 min. The lysate was collected and centrifuged at 4° C. for 10 min at 12,000 rpm. The pellet was discarded and the supernatant was transferred to a new tube. The cell lysate was loaded with 5× loading buffer and boiled for 10 min, resolved by 10% SDS-polyacrylamide gel electrophoresis (SDS-PAGE), and transferred to a PVDF membrane. The membrane was blocked with 5% skim milk in Tris-buffered saline and TWEEN® 20 (TBST; 10 mM Tris-HCl, pH 8.0, 150 mM NaCl, 0.1% TWEEN® 20) for 1 h at room temperature and then incubated with α-SMA and β-actin antibodies overnight at 4° C. After washing twice with TBST, the membrane was probed with a […] anti-immunoglobulin (1:5000 dilution) for 1 h at room temperature. After two subsequent rinses in TBST, immunoreactive products were reacted with ECL and visualized by a UVP CHEMSTUDIO™ imaging system. The western blotting bands are quantitated using an ImageJ software. The percentage of inhibition was obtained by calculating the percentage decrease in the band intensity compared to the one treated with TGF-β only.
The results are summarized in Table 1, where A represents a value no less than 80/% inhibition, B represents a value less than 80% but no less than 50% inhibition, C represents a value less than 50% but no less than 30% inhibition, and D represents a value less than 30% inhibition with a compound at 10 μM.

In experiment [2] the test system is A549 (lung adenocarcinoma). In words: Antiproliferative activity, CCK-8 cell viability. As to conditions: Homo sapiens, 72 h, read-out: Inhibition of Cancerous Cells, A549. How it is done:
(§1) The antiproliferative activity of a compound was determined in the following cell lines: MDA-MB-231 (breast cancer), HepG2 (liver cancer), SW480 (colon cancer), B16F10 (malignant melanoma), A431 (epidermoid carcinoma), A549 (lung adenocarcinoma), and HeLa (cervical cancer). MDA-MB-231, HepG2, SW480, B16F10, and A431 cells were cultured in Dulbecco's modified Eagle's medium (DMEM) containing 10% fetal bovine serum (FBS). HeLa cells were cultured in MEM/EBSS (MEM) containing 10% FBS. A549 cells were maintained in Kaighn's modification of Ham's F-12 medium containing 10% FBS. The Cell Counting Kit-8 (CCK-8) assay was used to determine the cell viability of cells following treatment with the compound.
(§2) Briefly, cells were seeded in a 96-well plate at a density of 2,000-5,000 cells/well. Following attachment, the cells were treated with the compound in media at a compound concentration of 3.3 μM, 10 μM, or 30 μM, or DMSO as a control. After the cells were incubated at 37° C. for 72 h, the CCK-8 solution (10 μL) was added to each well. After incubation at 37° C. for 4 h, the absorbance value of each well was determined using a multi-well plate reader at 450 nm. The percentage of cell viability was determined with respect to the DMSO-treated cells. The results were summarized in Table 2-4 below, wherein A represents no less than 50% inhibition of cell growth; B represents less than 50% but no less than 30% inhibition of cell growth; C represents less than 30% inhibition of cell growth.

In experiment [3] the test system is B16F10 (malignant melanoma). In words: Antiproliferative activity, CCK-8 cell viability. As to conditions: Mus musculus, B16-F10, 72 h, read-out: Inhibition of Cancerous Cells, B16F10. How it is done:
as §1, §2

In experiment [4] the test system is HeLa (cervical cancer). In words: Antiproliferative activity, CCK-8 cell viability. As to conditions: Homo sapiens, 72 h, read-out: Inhibition of Cancerous Cells, HELA. How it is done: as §1, §2
Experiment [5] concerns HepG2 (liver cancer). The experiment can be described thus: Antiproliferative activity, CCK-8 cell viability. The conditions noted are these: Homo sapiens, 72 h, read-out: Inhibition of Cancerous Cells, HepG2. On the procedure:
as §1, §2

The subject of experiment [6] is MDA-MB-231 (breast cancer). In words: Antiproliferative activity, CCK-8 cell viability. As to conditions: Homo sapiens, 72 h, read-out: Inhibition of Cancerous Cells, MDA-MB-231. On the procedure:
as §1, §2

Experiment [7] concerns SW480 (colon cancer). In words: Antiproliferative activity, CCK-8 cell viability. The conditions noted are these: Homo sapiens, 72 h, read-out: Inhibition of Cancerous Cells, SW480. On the procedure:
as §1, §2

[8] abbreviates: compound concentration of 3.3 μM.
Setting [9] is: compound concentration of 10 μM.
The mark [10] stands for this setting: compound concentration of 30 μM.

In experiment [1], `CC1=C(CC(=O)NO)c2cc(F)ccc2/C1=C/c1ccc(C(C)(C)C)cc1` [Compound E6, (E)-2-(1-(4-(Tert-butyl)benzylidene)-5-fluoro-2-methyl-1H-inden-3-yl)-N-hydroxyacetamide] registered an inhibition at 10 µM of 50 to 80%.
On the same count and under the same terms, as for `CC1=C(CC(=O)O)c2cc(F)ccc2/C1=C\c1ccc(OCc2ccccc2)cc1` [Compound A2, 2-[(1Z)-5-Fluoro-1-(4-(benzyloxy)benzylidene)-2-methyl-1H-inden-3-yl]-acetic acid], the figure is not below 80%.
On the same count and under the same terms, as for `CC1=C(CC(=O)NO)c2cc(F)ccc2/C1=C\c1ccc(Oc2ccc(C(C)C)cc2)cc1` [Compound D1, 2-[(1Z)-5-Fluoro-2-methyl-1-({4-[4-(propan-2-yl)phenoxy]phenyl}methylidene)-1H-inden-3-yl]-N-hydroxyacetamide], the figure is not below 80%; as for `CC1=C(CC(=O)O)c2cc(F)ccc2/C1=C/c1ccc(Oc2ccc(F)cc2)cc1` [Compound E2, 2-[(1E)-5-Fluoro-2-methyl-1-({4-[4-fluorophenoxy]phenyl}methylidene)-1H-inden-3-yl]acetic acid], not below 80%.
For the compound `CON(C)C(=O)CC1=C(C)/C(=C/c2ccc(C(C)(C)C)cc2)c2ccc(F)cc21` [Compound B4, (Z)-2-(1-(4-(Tert-butyl)benzylidene)-5-fluoro-2-methyl-1H-inden-3-yl)-N-methoxy-N-methylacetamide], in experiment [1], the inhibition at 10 µM was not below 80%.
The same measure, in the same setting: as for `CC1=C(CC(=O)NO)c2cc(F)ccc2/C1=C\c1ccc(C)c2ccccc12` [Compound C2, (Z)-2-(5-Fluoro-2-methyl-1-((4-methylnaphthalen-1-yl)methylene)-1H-inden-3-yl)-N-hydroxyacetamide], the figure is not below 80%; as for `CC1=C(CC(=O)NO)c2cc(F)ccc2/C1=C\c1ccnc2ccccc12` [Compound C6, (Z)-2-(5-Fluoro-2-methyl-1-(quinolin-4-ylmethylene)-1H-inden-3-yl)-N-hydroxyacetamide], not below 80%.
Same read-out and setting: as for `CC1=C(CC(=O)O)c2cc(F)ccc2/C1=C\c1ccc(F)cc1OCc1ccccc1` [Compound A7, 2-[(1Z)-1-{[2-(Benzyloxy)-4-fluorophenyl]methylidene}-5-fluoro-2-methyl-1H-inden-3-yl]acetic acid], the figure is less than 30%.
On to `CC1=C(CC(=O)O)c2cc(F)ccc2/C1=C\c1ccc(Oc2cccc(C(C)(C)C)c2)cc1` [Compound D3, 2-[(1Z)-5-Fluoro-2-methyl-1-({4-[3-(tert-butyl)phenoxy]phenyl}methylidene)-1H-inden-3-yl]acetic acid], for which, in experiment [1], the inhibition at 10 µM is not below 80%.
Turning to `COc1ccc2c(c1)/C(=C\c1cccc(Oc3ccccc3)c1)C(C)=C2CC(=O)O` [Compound D35, 2-[(1Z)-6-Methoxy-1-(3-(phenoxy)benzylidene)-2-methyl-1H-inden-3-yl]-acetic acid], in experiment [1], the inhibition at 10 µM was less than 30%.
`COc1ccc2c(c1)/C(=C\c1ccc(Oc3ccccc3)cc1)C(C)=C2CC(=O)O` [Compound D29, 2-[(1Z)-6-Methoxy-1-(4-(phenoxy)benzylidene)-2-methyl-1H-inden-3-yl]-acetic acid] showed an inhibition at 10 µM in experiment [1] of 50 to 80%.
With `COc1ccc2c(c1)C(CC(=O)O)=C(C)/C2=C/c1ccc(Oc2ccc(F)cc2)cc1` [Compound D10, 2-[(1Z)-5-Methoxy-2-methyl-1-({4-[4-fluorophenoxy]phenyl}methylidene)-1H-inden-3-yl]acetic acid], the inhibition at 10 µM in experiment [1] was not below 80%.
Compound `CC1=C(CC(=O)O)c2cc(F)ccc2/C1=C\c1ccc(COc2ccc(F)cc2)cc1` [Compound A1, 2-[(1Z)-5-Fluoro-1-(4-((4-fluorophenoxy)methyl)benzylidene)-2-methyl-1H-inden-3-yl]-acetic acid] gave an inhibition at 10 µM in experiment [1] not below 80%.
On the same count and under the same terms, as for `CC1=C(CC(=O)N(C)O)c2cc(F)ccc2/C1=C\c1ccc(C2CC2)cc1` [Compound B3, (Z)-2-(1-(4-Cyclopropylbenzylidene)-5-fluoro-2-methyl-1H-inden-3-yl)-N-hydroxy-N-methylacetamide], the figure is not below 80%; as for `CC1=C(CC(=O)NO)c2cc(F)ccc2/C1=C\c1ccc(C2=CCCC2)cc1` [Compound D40, (Z)-2-(1-(4-(Cyclopent-1-en-1-yl)benzylidene)-5-fluoro-2-methyl-1H-inden-3-yl)-N-hydroxyacetamide], 50 to 80%.
On the same count and under the same terms, then `CC1=C(CC(=O)O)c2cc(F)ccc2/C1=C\c1cccc(N(C)c2ccccc2)c1` [Compound D37, 2-[(1Z)-5-Fluoro-2-methyl-1-({3-[methyl(phenyl)amino]phenyl}methylidene)-1H-inden-3-yl]acetic acid], with not below 80%.
As to `O=C(O)CC1=C/C(=C/c2ccc(Oc3ccc(F)cc3)cc2)c2ccccc21` [Compound D32, 2-[(1Z)-1-{[4-(4-Fluorophenoxy)phenyl]methylidene}-1H-inden-3-yl]acetic acid], the inhibition at 3.3 µM in experiment [2] (setting [8]) was less than 30%; in experiment [3] (setting [8]) it was less than 30%; in experiment [4] (setting [8]) it was 30 to 50%; in experiment [5] (setting [8]), not below 50%; in experiment [6] (setting [8]) it was less than 30%; in experiment [7] (setting [8]), less than 30%. The inhibition at 10 µM in experiment [2] (setting [9]) was less than 30%; in experiment [3] (setting [9]) it was 30 to 50%; in experiment [4] (setting [9]), 30 to 50%; in experiment [5] (setting [9]), not below 50%; in experiment [6] (setting [9]) it was less than 30%; in experiment [7] (setting [9]), less than 30%. Moreover, the inhibition at 30 µM in experiment [2] (setting [10]) is 30 to 50%; in experiment [3] (setting [10]), not below 50%; in experiment [4] (setting [10]) it was not below 50%; in experiment [5] (setting [10]) it was not below 50%; in experiment [6] (setting [10]), 30 to 50%; in experiment [7] (setting [10]), less than 30%.

These data come from patent US20240116845A1, “INDENE COMPOUNDS, PHARMACEUTICAL COMPOSITIONS THEREOF, AND THEIR THERAPEUTIC APPLICATIONS” (NucMito Pharmaceuticals Co., Ltd., priority 2021, published 2024).
